In US20140336067A1, “METHOD FOR FINDING BIOACTIVE PEPTIDES” (Nano Intelligent Biomedical Engineering Corporation Co. Ltd., priority 2011, published 2014):

Experiments:
[1] = system: hMSCs (human mesenchymal stem cells); assay: In vitro cell differentiation potential by calcium production (Alizarin red S staining); format: cell-based; conditions: hMSCs treated with 10 mM peptide, hard tissue forming medium, FIG. 6
Experimental: To measure the cell differentiation ability of the heparin binding peptide by calcium production, 1×10^3 hMSCs (human mesenchymal stem cells) were dispensed into each well of a well-plate, and then treated with 10 mM of each of the peptides of SEQ ID NOS: 2 and 3 synthesized in Example 2. Then, the cells were cultured in a hard tissue forming medium (MSCBM medium containing 15% FBS (fetal bovine serum), […] L-ascorbic acid, 10^−7 M dexamethasone, 1% antibiotic-antimycotic solution, and 10 mM beta-glycerol phosphate) for […]. After completion of the culture, the medium was removed, and the cells were washed twice with phosphate buffered saline (PBS). Then, the cells were fixed with 90% ethanol at 4° C. for 15 minutes and washed twice with distilled water, followed by staining with 2% Alizarin red S solution (pH 4.2; Alizarin red S powder, Junsei, JAPAN) for 5 minutes.

[2] = Binding of synthesized peptide to heparin (solid phase method, HRP-conjugated heparin binding protein, absorbance at 405 nm); conditions: peptide coated on 96-well plates, sodium heparin 10 μg/100 μL, FIG. 5
Experimental: The synthesized peptide was dissolved in PBS at various concentrations and coated on the surface of 96-well Maxisorp microtiter plates (Nunc). Then, it was blocked with 1% BSA at 37° C. for 1 hour, and sodium heparin (10 μg/100 μL) was added to the peptide and reacted with the peptide at room temperature for 4 hours. The plate was washed three times with PBS, and then horseradish peroxidase (HRP)-conjugated heparin binding protein (Lifespan Technologies, Salt Lake City, Utah) diluted in PBS at a concentration of 1 μg/mL was reacted with the peptide at room temperature for 1 hour. To measure the binding of HRP-conjugated heparin binding protein to the peptide, ABTS was added to each well to develop color, and after 5 minutes, 1% SDS was added to each well to stop the reaction. Then, the absorbance of each well at 405 nm was measured. The absorbance of the peptide having the HRP-conjugated heparin binding protein bound thereto was calculated relative to 100% for the well surface coated with 1% BSA.
Binding %=(absorbance of well coated with heparin binding peptide/absorbance of well coated with BSA)×100

| ability to bind to heparin [2] | Sequence | production of calcium [1] |
| --- | --- | --- |
| – | SLYVDFSDVGW (the sequence is synthesized) [SEQ ID NO: 3, BMP-4 peptide selected from chymotrypsin cleavage sites] | lowest |
| high ability to bind to heparin | SQRARKKNKNCRRH (the sequence is synthesized) [SEQ ID NO: 2] | highest |
